Patent US8580711B2, “Decreasing or preventing sub-surface geological matter contamination by agrochemicals” (Yeda Research and Development Co. Ltd., priority 2005, dated 2013)

Key:
[1] = USGS estimate; cited from earlier work
[2] = cited from earlier work
[3] = batch mode homogeneous catalytic reductive dechlorination of endosulfan in contaminated water, titanium (III) citrate as bulk electron donor; details: after 72 hours of reaction, about 0.010 mM catalyst, 0.32 ppm endosulfan initially, room temperature
Method: 40 milliliter (0.04 liter) glass vials (usually filled with about 25 milliliters of reaction solution), fitted with Teflon®-clear silicon sealing cups, were used at room temperature (between about 20° C. and about 25° C.) and atmospheric pressure. Contents of each glass vial (batch reactor) were mixed by securing the glass vial onto an orbital shaker (model TS-600, from MRC, Israel) having automatic (mixing) speed control. Multiple replicates of each glass vial (batch reactor) filled with reaction solution were prepared at the beginning of an experiment.
The glass vial batch mode reaction systems were prepared under oxygen free atmosphere conditions, using an anaerobic chamber (Coy Laboratory Products, MI, USA) containing an oxygen free atmosphere composed of a mixture of nitrogen [N2] gas and hydrogen [H2] gas, having a 95/5 molar or partial pressure ratio.
GC/MS was used for monitoring concentration over time, of endosulfan (as α and β isomers) in the endosulfan contaminated water, during the batch mode homogeneous catalytic reactions.
The extracted organic phase was then transferred to a gas chromatograph vial and analyzed for the presence of the endosulfan (as α and β isomers) contaminant.
The reactions were performed at room temperature (between about 20° C. and about 25° C.) and atmospheric pressure.
A volume of 25 milliliter (0.025 liter) was taken from the appropriate stock solution of water contaminated with endosulfan and added to the empty 40 milliliter glass vial (batch reactor), for providing an initial concentration of 0.32 mg endosulfan per liter contaminated water, or 0.32 ppm endosulfan in the contaminated water. This procedure was repeated, for preparing at least two glass vials (batch reactors) for each experiment.
Reducing conditions were not naturally prevalent in the endosulfan contaminated water in the glass vials (batch reactors) for effectively enabling the phenomena, mechanisms, and processes of the electron transfer mediated (homogeneous) catalytic reductive dehalogenation of the endosulfan contaminant in the contaminated water. Thus, reducing conditions in the endosulfan contaminated water were anthropogenically produced by exposing the endosulfan contaminated water to titanium (III) citrate [Ti(OC(CH2COOH)2COOH] as the bulk electron donor or reducing agent, immediately before exposing the endosulfan contaminated water to the catalytically effective amount of each respective above stated metalloporphyrin complex, or metallocorrin complex, electron transfer mediator (homogeneous catalyst).
The pH of the solution was then adjusted to the desired value (e.g., 9.0) by adding small amounts of NaOH concentrated solution to each glass vial (batch reactor).
Then, an appropriate volume was taken from each respective above stated 2 mM metalloporphyrin complex, or metallocorrin complex, stock solution, and added to each glass vial (batch reactor) containing endosulfan contaminated water and titanium (III) citrate, for providing a concentration of about 0.010 mM metalloporphyrin complex, or metallocorrin complex, electron transfer mediator (homogeneous) catalyst in the endosulfan contaminated water. At this point, the glass vials were sealed, and transferred to the orbital shaker.
The contents, i.e., the endosulfan contaminated water containing the titanium (III) citrate as bulk electron donor or reducing agent and the metalloporphyrin complex, or metallocorrin complex, electron transfer mediator (homogeneous) catalyst, in each glass vial (batch reactor), were continuously mixed by securing each glass vial onto the orbital shaker set at a mixing speed of 150 rpm during the entire extent of time or duration of reaction.
For each metalloporphyrin complex, or metallocorrin complex, GC/MS analytical samples were prepared after 72 hours from each of at least two glass vials containing the endosulfan contaminated water of the batch mode homogeneous catalytic reductive dechlorination reaction.

[4] = partitioning (adsorption and desorption) of electron transfer mediators on/off geological matter; assay type: physicochemical; details: Kaolinite clay, room temperature; for Adsorption (%) of (ETM) after 10 days: aqueous mixture; for Desorption (%) of (ETM) after 10 days: fresh water replaced
Method: Kaolinite clay, ‘purum, natural’ grade, was obtained from Fluka.
(§1) 40 milliliter (ml) (0.04 liter) glass vials (filled with 10 milliliters, of solution), were used at room temperature (between about 20° C. and about 25° C.) and atmospheric pressure, as the vessel or container, for containing the aqueous mixtures of the (partitioning) electron transfer mediator (ETM)—geological matter (soil or clay).
(§2) Ultraviolet and visible (UV/VIS) absorption spectrometry was used for measuring and determining the quantity (concentration), after a time period of 10 days each of (ETM) adsorption and desorption, of each (partitioning) electron transfer mediator (ETM) in the aqueous (liquid) phase of each respective electron transfer mediator (ETM)—geological matter (soil or clay) aqueous mixture. Multiple samples of the aqueous (liquid) phase of each mixture were taken from each respective glass vial (partitioning vessel).
(§3) The UV/VIS absorption spectrometer was a Varian, Cary 100, operative according to double beam analysis. Concentrations of the [TBSP-Ni], hematoporphyrin-Cobalt, and vitamin B12, electron transfer mediators (ETMs), were measured at absorption wavelengths of 527 nanometers (nm), 413 nanometers (nm), and 548 nanometers (nm), respectively.
(§4) The electron transfer mediator (ETM)—geological matter (soil or clay) partitioning experiments were performed at room temperature (between about 20° C. and about 25° C.) and atmospheric pressure.
(§5) Each prepared 2 mM metalloporphyrin complex, or metallocorrin complex, (ETM) aqueous stock solution, was diluted by a ratio of 1/10 or 1/100 with the distilled deionized filtered water, for forming respective diluted (ETM) stock solutions.
(§6) For each diluted (ETM) stock solution, corresponding to each respective electron transfer mediator (ETM), an amount of each type of geological matter, i.e., Bet Dagan soil, kaolinite clay, and montmorillonite clay, was weighed, and added to a separate glass vial (partitioning vessel). (ETM) Control solutions remained absent of any geological matter. […]
(§7) The ‘adsorption mode’ analytical samples were then analyzed by the above described (UV/VIS) absorption spectrometry procedure, for determining the quantity (concentration) of the [TBSP-Ni], hematoporphyrin-Cobalt, and vitamin B12, electron transfer mediator (ETM), present (i.e., remaining) in the aqueous (liquid) phase of each respective electron transfer mediator (ETM)—geological matter (soil or clay) aqueous mixture. Such analysis and determination corresponded to quantitatively measuring and determining the extent that the respective electron transfer mediator (ETM) left the aqueous (liquid) phase and ‘adsorbed’ onto the respective geological matter (soil or clay) (solid) phase. The (ETM) Control solutions were similarly analyzed. […]

[5] = as above; assay type: physicochemical; details: Bet Dagan soil, room temperature; for Adsorption (%) of (ETM) after 10 days: aqueous mixture; for Desorption (%) of (ETM) after 10 days: fresh water replaced
Method: Bet Dagan soil was obtained from the site of the Bet Dagan Agricultural Research Organization campus, Bet Dagan, Israel. The Bet Dagan soil was sieved to a size of 60 mesh, and maintained in a dry air environment until use.
as §1, §2, §3, §4, §5, §6
The ‘adsorption mode’ analytical samples were then analyzed by the above described (UV/VIS) absorption spectrometry procedure, for determining the quantity (concentration) of the [TBSP-Ni], hematoporphyrin-Cobalt, and vitamin B12, electron transfer mediator (ETM), present (i.e., remaining) in the aqueous (liquid) phase of each respective electron transfer mediator (ETM)—geological matter (soil or clay) aqueous mixture. […]

[6] = as above; assay type: physicochemical; details: Montmorillonite clay, room temperature; for Adsorption (%) of (ETM) after 10 days: aqueous mixture; for Desorption (%) of (ETM) after 10 days: fresh water replaced
Method: Montmorillonite clay, 10-12% impurities, was obtained from Fluka.
as §1, §2, §3, §4, §5, §6, §7

Compound | Normalized Endosulfan Concentration (%) α isomer [3] [%] | Normalized Endosulfan Concentration (%) β isomer [3] [%] | also measured
CCNc1nc(Cl)nc(NC(C)C)n1 [Atrazine, atrazine] |  |  | persistence in deep lakes [1]: exceed 10 years
Clc1ccc(C(c2ccc(Cl)cc2)C(Cl)(Cl)Cl)cc1 [DDT, DichloroDiphenylTrichloroethane] |  |  | partition coefficient, Kd, relative to aldicarb ([2]; ratio DDT / aldicarb): roughly 20,000 times; partition coefficient, Kd, relative to atrazine ([2]; ratio DDT / atrazine): ~1,500 times
C=Cc1c(C)c2cc3[nH]c(cc4nc(cc5nc(cc1[nH]2)C(C)=C5CCC(=O)[O-])C(CCC(=O)[O-])=C4C)c(C)c3C=C.[Co+2] [Protoporphyrin IX-Co, protoporphyrin IX-Cobalt] | 31.5 | 37.8 | 
O=S(=O)(O)c1ccc(-c2c3nc(c(-c4ccc(S(=O)(=O)O)cc4)c4ccc([nH]4)c(-c4ccc(S(=O)(=O)O)cc4)c4nc(c(-c5ccc(S(=O)(=O)O)cc5)c5ccc2[nH]5)C=C4)C=C3)cc1.[Co] [[TBSP—Co], 4,4′,4″,4′″-(porphine-5,10,15,20-tetrayl)tetrakis(benzenesulfonic acid)-Cobalt] | 2.8 | 0.0 | 
O=S(=O)(O)c1ccc(-c2c3nc(c(-c4ccc(S(=O)(=O)O)cc4)c4ccc([nH]4)c(-c4ccc(S(=O)(=O)O)cc4)c4nc(c(-c5ccc(S(=O)(=O)O)cc5)c5ccc2[nH]5)C=C4)C=C3)cc1.[Ni] [[TBSP—Ni], 4,4′,4″,4′″-(porphine-5,10,15,20-tetrayl)tetrakis(benzenesulfonic acid)-Nickel] | 1.3 | 0.0 | Adsorption (%) of (ETM) after 10 days [4]: 59.44 ± 1.21%; Desorption (%) of (ETM) after 10 days [4]: 40.17 ± 5.51%; Adsorption (%) of (ETM) after 10 days [5]: 71.68 ± 2.31%; Desorption (%) of (ETM) after 10 days [5]: 21.22 ± 2.55%; Adsorption (%) of (ETM) after 10 days [6]: 95.50 ± 0.44%; Desorption (%) of (ETM) after 10 days [6]: 8.57 ± 1.28%
C[n+]1ccc(-c2c3nc(c(-c4cc[n+](C)cc4)c4ccc([n-]4)c(-c4cc[n+](C)cc4)c4nc(c(-c5cc[n+](C)cc5)c5ccc2[n-]5)C=C4)C=C3)cc1.[Co+2] [[TMPyP—Co], tetramethylpyridilporphyrin-Cobalt [5,10,15,20-tetrakis(1-methyl-4-pyridinio)-porphine-Cobalt]] | 1.2 | 0.0 | 
C[n+]1ccc(-c2c3nc(c(-c4cc[n+](C)cc4)c4ccc([n-]4)c(-c4cc[n+](C)cc4)c4nc(c(-c5cc[n+](C)cc5)c5ccc2[n-]5)C=C4)C=C3)cc1.[Fe+2] [[TMPyP—Fe], tetramethylpyridilporphyrin-Iron [5,10,15,20-tetrakis(1-methyl-4-pyridinio)-porphine-Iron]] | 40.7 | 66.7 | 
C[n+]1ccc(-c2c3nc(c(-c4cc[n+](C)cc4)c4ccc([n-]4)c(-c4cc[n+](C)cc4)c4nc(c(-c5cc[n+](C)cc5)c5ccc2[n-]5)C=C4)C=C3)cc1.[Ni+2] [[TMPyP—Ni], tetramethylpyridilporphyrin-Nickel [5,10,15,20-tetrakis(1-methyl-4-pyridinio)-porphine-Nickel]] | 0.0 | 0.0 | 
Oc1ccc(-c2c3nc(c(-c4ccc(O)cc4)c4ccc([n-]4)c(-c4ccc(O)cc4)c4nc(c(-c5ccc(O)cc5)c5ccc2[n-]5)C=C4)C=C3)cc1.[Co+2] [[TP(OH)P—Co], tetrahydroxyphenylporphyrine-Cobalt [5,10,15,20-tetrakis(4-hydroxyphenyl)-21H,23H-porphine-Cobalt]] | 8.3 | 12.3 | 
Oc1ccc(-c2c3nc(c(-c4ccc(O)cc4)c4ccc([n-]4)c(-c4ccc(O)cc4)c4nc(c(-c5ccc(O)cc5)c5ccc2[n-]5)C=C4)C=C3)cc1.[Ni+2] [[TP(OH)P—Ni], tetrahydroxyphenylporphyrine-Nickel [5,10,15,20-tetrakis(4-hydroxyphenyl)-21H,23H-porphine-Nickel]] | 8.3 | 9.3 | 
hematoporphyrin-Cobalt | 9.4 | 9.7 | Adsorption (%) of (ETM) after 10 days [4]: 45.28 ± 1.85%; Desorption (%) of (ETM) after 10 days [4]: 12.65 ± 0.67%; Adsorption (%) of (ETM) after 10 days [5]: 12.80 ± 1.2%; Desorption (%) of (ETM) after 10 days [5]: 5.87 ± 0.32%; Adsorption (%) of (ETM) after 10 days [6]: 100%; Desorption (%) of (ETM) after 10 days [6]: 0%
